Measured values taken from US10780090B2, “Heteroaryl compounds useful as inhibitors of SUMO activating enzyme” (Millennium Pharmaceuticals, Inc., priority 2014, dated 2020).

Molecular target: recombinant human SAE enzyme (Homo sapiens (Human), UniProt Q9UBT2)
Assay: SAE HTRF enzyme assay
Assay type: biochemical
Settings: for inhibition at 0.111 µM: read-out: Percent Inhibition
Summary of the method: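 This HTRF format monitors Sumo-Flag–Ubc9-GST thioester formation catalysed by 0.11 nM human SAE with 0.5 μM ATP over 105 min at 24° C. Inhibition is expressed at a single concentration or as IC50.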

Chain of recombinant human SAE enzyme (Q9UBT2 whole entry): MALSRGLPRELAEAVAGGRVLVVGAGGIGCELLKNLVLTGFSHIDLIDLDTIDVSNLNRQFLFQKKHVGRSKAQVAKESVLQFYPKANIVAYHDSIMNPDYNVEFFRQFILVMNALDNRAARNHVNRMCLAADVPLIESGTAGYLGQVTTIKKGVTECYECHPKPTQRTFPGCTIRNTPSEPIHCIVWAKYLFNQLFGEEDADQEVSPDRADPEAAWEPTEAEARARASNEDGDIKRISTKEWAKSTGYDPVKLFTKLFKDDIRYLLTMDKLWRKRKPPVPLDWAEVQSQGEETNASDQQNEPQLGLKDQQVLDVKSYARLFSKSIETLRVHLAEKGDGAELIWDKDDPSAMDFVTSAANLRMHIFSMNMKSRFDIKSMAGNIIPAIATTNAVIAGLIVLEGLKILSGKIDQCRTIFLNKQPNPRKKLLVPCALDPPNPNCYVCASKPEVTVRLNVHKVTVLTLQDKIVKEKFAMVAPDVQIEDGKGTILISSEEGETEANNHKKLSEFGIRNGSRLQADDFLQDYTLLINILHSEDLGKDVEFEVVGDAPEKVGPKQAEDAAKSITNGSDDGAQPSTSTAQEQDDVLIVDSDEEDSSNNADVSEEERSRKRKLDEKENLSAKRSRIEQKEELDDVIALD
Chain of recombinant human SAE enzyme (Q9UBE0 whole entry partner): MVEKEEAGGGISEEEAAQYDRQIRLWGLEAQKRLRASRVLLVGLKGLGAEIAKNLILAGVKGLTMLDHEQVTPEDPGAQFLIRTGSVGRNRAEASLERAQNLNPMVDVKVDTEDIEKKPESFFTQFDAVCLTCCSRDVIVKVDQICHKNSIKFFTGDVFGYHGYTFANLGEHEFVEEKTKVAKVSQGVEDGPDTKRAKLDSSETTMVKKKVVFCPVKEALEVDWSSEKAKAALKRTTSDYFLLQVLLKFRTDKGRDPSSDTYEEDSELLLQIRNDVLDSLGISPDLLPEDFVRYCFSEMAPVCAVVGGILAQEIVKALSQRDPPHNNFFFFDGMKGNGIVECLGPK

SMILES | Percent Inhibition (SAE inhibition at compound concentration 0.111 μM) | IC50 (SAE inhibition, class symbols, legend in nM) | Percent Inhibition (Concentration 0.111 μM) | IC50 (class symbols A/B/C) | inhibition at 0.111 µM (Concentration 0.111 μM)
Cc1sc(C(=O)c2cncnc2N[C@@H]2C[C@H](COS(N)(=O)=O)[C@@H](O)C2)cc1[C@@H]1OCCc2ccc(Cl)nc21 (single isomer, unassigned) [I-286b, [(1R,2S,4R)-4-{[5-({4-[(8S)-2-chloro-5,8-dihydro-6H-pyrano[3,4-b]pyridin-8-yl]-5-methyl-2-thienyl}carbonyl)pyrimidin-4-yl]amino}-2-hydroxycyclopentyl]methyl sulfamate or [(1R,2S,4R)-4-{[5-({4-[(8R)-2-chloro-5,8-dihydro-6H-pyrano[3,4-b]pyridin-8-yl]-5-methyl-2-thienyl}carbonyl)pyrimidin-4-yl]amino}-2-hydroxycyclopentyl]methyl sulfamate] | 99% | < 10 nM | – | – | –
NS(=O)(=O)OC[C@H]1C[C@@H](Nc2ncncc2C(=O)c2cc([C@H](O)c3cccc(Cl)c3)cs2)C[C@@H]1O (single isomer, unassigned) [I-4b, [(1R,2S,4R)-4-{[5-({4-[(R)-(3-chlorophenyl)(hydroxy)methyl]-2-thienyl}carbonyl)pyrimidin-4-yl]amino}-2-hydroxycyclopentyl]methyl sulfamate or [(1R,2S,4R)-4-{[5-({4-[(S)-(3-chlorophenyl)(hydroxy)methyl]-2-thienyl}carbonyl)pyrimidin-4-yl]amino}-2-hydroxycyclopentyl]methyl sulfamate] | – | – | 100 | < 10 nM | –
NS(=O)(=O)OC[C@H]1C[C@@H](Nc2ncncc2C(=O)c2cc([C@@H](O)c3cccc(Cl)c3)co2)C[C@@H]1O.NS(=O)(=O)OC[C@H]1C[C@@H](Nc2ncncc2C(=O)c2cc([C@H](O)c3cccc(Cl)c3)co2)C[C@@H]1O (mixture of isomers) [I-42, {(1R,2S,4R)-4-[(5-{4-[(R)-(3-chlorophenyl)(hydroxy)methyl]-2-furoyl}pyrimidin-4-yl)amino]-2-hydroxycyclopentyl}methyl sulfamate and {(1R,2S,4R)-4-[(5-{4-[(S)-(3-chlorophenyl)(hydroxy)methyl]-2-furoyl}pyrimidin-4-yl)amino]-2-hydroxycyclopentyl}methyl sulfamate] | – | – | 98 | < 10 nM | –
COCc1ccc(C(=O)c2cncnc2N[C@@H]2C[C@H](COS(N)(=O)=O)[C@@H](O)C2)o1 [I-212, [(1R,2S,4R)-2-hydroxy-4-({5-[5-(methoxymethyl)-2-furoyl]pyrimidin-4-yl}amino)cyclopentyl]methyl sulfamate] | – | – | – | 100 to 1000 nM | 43%
NS(=O)(=O)OC[C@H]1C[C@@H](Nc2ncncc2C(=O)c2cc(Cc3cccc(Cl)n3)cs2)C[C@@H]1O [I-71, [(1R,2S,4R)-4-{[5-({4-[(6-chloropyridin-2-yl)methyl]-2-thienyl}carbonyl)pyrimidin-4-yl]amino}-2-hydroxycyclopentyl]methyl sulfamate] | – | – | – | – | 98%
Cc1sc(C(=O)c2cncnc2N[C@@H]2C[C@H](COS(N)(=O)=O)[C@@H](O)C2)cc1[C@@H]1NCCc2ccc(Cl)cc21 [I-263a, [(1R,2S,4R)-4-[[5-[4-[(1R)-7-chloro-1,2,3,4-tetrahydroisoquinolin-1-yl]-5-methyl-thiophene-2-carbonyl]pyrimidin-4-yl]amino]-2-hydroxy-cyclopentyl]methyl sulfamate] | – | – | – | < 10 nM | 101%
NS(=O)(=O)OC[C@H]1C[C@@H](Nc2ncncc2C(=O)c2cc([C@H](O)c3cccc(Cl)c3)co2)C[C@@H]1O (single isomer, unassigned) [I-42a, {(1R,2S,4R)-4-[(5-{4-[(R)-(3-chlorophenyl)(hydroxy)methyl]-2-furoyl}pyrimidin-4-yl)amino]-2-hydroxycyclopentyl}methyl sulfamate or {(1R,2S,4R)-4-[(5-{4-[(S)-(3-chlorophenyl)(hydroxy)methyl]-2-furoyl}pyrimidin-4-yl)amino]-2-hydroxycyclopentyl}methyl sulfamate] | – | – | 97 | < 10 nM | –
